Measurements from ChEMBL document CHEMBL3045554, “Synthesis and antimicrobial screening of N-(1-methyl-1H-pyrazole-4-carbonyl)-thiourea derivatives” (2012).
≈ marks a conversion by molar mass, not a printed value. Calls of active or inactive are those of the source. The calls are words filed in the database; no cut-off is given here.

Tests used:
Acinetobacter baumannii [1] = assay: Effect on amylase production in Acinetobacter baumannii 15896 after 24 hr by starch hydrolysis assay; format: functional, organism-based
Staphylococcus aureus [2] = assay: Effect on amylase production in Staphylococcus aureus after 24 hr by starch hydrolysis assay; format: functional, organism-based
Escherichia coli [3] = assay: Antimicrobial activity against Escherichia coli 637/2007 by microdilution method; format: functional
Klebsiella pneumoniae [4] = assay: Antimicrobial activity against Klebsiella pneumoniae 126/2007 by microdilution method; format: functional
Acinetobacter baumannii [5] = assay: Antimicrobial activity against Acinetobacter baumannii 15896 by microdilution method; format: functional
Pseudomonas aeruginosa [6] = assay: Antimicrobial activity against Pseudomonas aeruginosa 5541 by microdilution method; format: functional
Staphylococcus aureus [7] = assay: Antimicrobial activity against Staphylococcus aureus by microdilution method; format: functional
Enterococcus faecalis [8] = assay: Antimicrobial activity against Enterococcus faecalis 13773 by microdilution method; format: functional
Bacillus subtilis [9] = assay: Antimicrobial activity against Bacillus subtilis 10.10.2006 by microdilution method; format: functional
Escherichia coli [10] = assay: Effect on esculethol production in Escherichia coli 637/2007 after 24 hr by esculin hydrolysis test; format: functional, organism-based
Klebsiella pneumoniae [11] = assay: Effect on esculethol production in Klebsiella pneumoniae 126/2007 after 24 hr by esculin hydrolysis test; format: functional, organism-based
Acinetobacter baumannii [12] = assay: Effect on esculethol production in Acinetobacter baumannii 15896 after 24 hr by esculin hydrolysis test; format: functional, organism-based
Pseudomonas aeruginosa [13] = assay: Effect on esculethol production in Pseudomonas aeruginosa 5541 after 24 hr by esculin hydrolysis test; format: functional, organism-based
Staphylococcus aureus [14] = assay: Effect on esculethol production in Staphylococcus aureus after 24 hr by esculin hydrolysis test; format: functional, organism-based
Enterococcus faecalis [15] = assay: Effect on esculethol production in Enterococcus faecalis 13773 after 24 hr by esculin hydrolysis test; format: functional, organism-based
Bacillus subtilis [16] = assay: Effect on esculethol production in Bacillus subtilis 10.10.2006 after 24 hr by esculin hydrolysis test; format: functional, organism-based
Escherichia coli [17] = assay: Effect on DNase production in Escherichia coli 637/2007 after 24 hr; format: functional, organism-based
Klebsiella pneumoniae [18] = assay: Effect on DNase production in Klebsiella pneumoniae 126/2007 after 24 hr; format: functional, organism-based
Acinetobacter baumannii [19] = assay: Effect on DNase production in Acinetobacter baumannii 15896 after 24 hr; format: functional, organism-based
Pseudomonas aeruginosa [20] = assay: Effect on DNase production in Pseudomonas aeruginosa 5541 after 24 hr; format: functional, organism-based
Staphylococcus aureus [21] = assay: Effect on DNase production in Staphylococcus aureus after 24 hr; format: functional, organism-based
Bacillus subtilis [22] = assay: Effect on DNase production in Bacillus subtilis 10.10.2006 after 24 hr; format: functional, organism-based
Enterococcus faecalis [23] = assay: Effect on DNase production in Enterococcus faecalis 13773 after 24 hr; format: functional, organism-based
Escherichia coli [24] = assay: Effect on lipase production in Escherichia coli 637/2007 after 7 days; format: functional, organism-based
Klebsiella pneumoniae [25] = assay: Effect on lipase production in Klebsiella pneumoniae 126/2007 after 7 days; format: functional, organism-based
Acinetobacter baumannii [26] = assay: Effect on lipase production in Acinetobacter baumannii 15896 after 7 days; format: functional, organism-based
Pseudomonas aeruginosa [27] = assay: Effect on lipase production in Pseudomonas aeruginosa 5541 after 7 days; format: functional, organism-based
Staphylococcus aureus [28] = assay: Effect on lipase production in Staphylococcus aureus after 7 days; format: functional, organism-based
Enterococcus faecalis [29] = assay: Effect on lipase production in Enterococcus faecalis 13773 after 7 days; format: functional, organism-based
Escherichia coli [30] = assay: Effect on amylase production in Escherichia coli 637/2007 after 24 hr by starch hydrolysis assay; format: functional, organism-based
Bacillus subtilis [31] = assay: Effect on lipase production in Bacillus subtilis 10.10.2006 after 7 days; format: functional, organism-based
Klebsiella pneumoniae [32] = assay: Effect on amylase production in Klebsiella pneumoniae 126/2007 after 24 hr by starch hydrolysis assay; format: functional, organism-based
Escherichia coli [33] = assay: Inhibition of caseinase production in Escherichia coli 637/2007 after 24 hr by casein hydrolysis assay; format: functional, organism-based
Klebsiella pneumoniae [34] = assay: Inhibition of caseinase production in Klebsiella pneumoniae 126/2007 after 24 hr by casein hydrolysis assay; format: functional, organism-based
Acinetobacter baumannii [35] = assay: Inhibition of caseinase production in Acinetobacter baumannii 15896 after 24 hr by casein hydrolysis assay; format: functional, organism-based
Pseudomonas aeruginosa [36] = assay: Inhibition of caseinase production in Pseudomonas aeruginosa 5541 after 24 hr by casein hydrolysis assay; format: functional, organism-based
Staphylococcus aureus [37] = assay: Inhibition of caseinase production in Staphylococcus aureus after 24 hr by casein hydrolysis assay; format: functional, organism-based
Enterococcus faecalis [38] = assay: Inhibition of caseinase production in Enterococcus faecalis 13773 after 24 hr by casein hydrolysis assay; format: functional, organism-based
Bacillus subtilis [39] = assay: Inhibition of caseinase production in Bacillus subtilis 10.10.2006 after 24 hr by casein hydrolysis assay; format: functional, organism-based
Escherichia coli [40] = assay: Inhibition of lecithinase production in Escherichia coli 637/2007 after 7 days; format: functional, organism-based
Klebsiella pneumoniae [41] = assay: Inhibition of lecithinase production in Klebsiella pneumoniae 126/2007 after 7 days; format: functional, organism-based
Acinetobacter baumannii [42] = assay: Inhibition of lecithinase production in Acinetobacter baumannii 15896 after 7 days; format: functional, organism-based
Pseudomonas aeruginosa [43] = assay: Inhibition of lecithinase production in Pseudomonas aeruginosa 5541 after 7 days; format: functional, organism-based
Staphylococcus aureus [44] = assay: Inhibition of lecithinase production in Staphylococcus aureus after 7 days; format: functional, organism-based
Enterococcus faecalis [45] = assay: Inhibition of lecithinase production in Enterococcus faecalis 13773 after 7 days; format: functional, organism-based
Bacillus subtilis [46] = assay: Inhibition of lecithinase production in Bacillus subtilis 10.10.2006 after 7 days; format: functional, organism-based
Enterococcus faecalis [47] = assay: Effect on amylase production in Enterococcus faecalis 13773 after 24 hr by starch hydrolysis assay; format: functional, organism-based
Bacillus subtilis [48] = assay: Effect on amylase production in Bacillus subtilis 10.10.2006 after 24 hr by starch hydrolysis assay; format: functional, organism-based
Pseudomonas aeruginosa [49] = assay: Effect on amylase production in Pseudomonas aeruginosa 5541 after 24 hr by starch hydrolysis assay; format: functional, organism-based
Pseudomonas aeruginosa [50] = assay: Effect on gelatinase production in Pseudomonas aeruginosa 5541 after 24 hr by gelatin hydrolysis test; format: functional, organism-based
Enterococcus faecalis [51] = assay: Effect on gelatinase production in Enterococcus faecalis 13773 after 24 hr by gelatin hydrolysis test; format: functional, organism-based
Bacillus subtilis [52] = assay: Effect on gelatinase production in Bacillus subtilis 10.10.2006 after 24 hr by gelatin hydrolysis test; format: functional, organism-based
Escherichia coli [53] = assay: Effect on gelatinase production in Escherichia coli 637/2007 after 24 hr by gelatin hydrolysis test; format: functional, organism-based
Klebsiella pneumoniae [54] = assay: Effect on gelatinase production in Klebsiella pneumoniae 126/2007 after 24 hr by gelatin hydrolysis test; format: functional, organism-based
Acinetobacter baumannii [55] = assay: Effect on gelatinase production in Acinetobacter baumannii 15896 after 24 hr by gelatin hydrolysis test; format: functional, organism-based
Staphylococcus aureus [56] = assay: Effect on gelatinase production in Staphylococcus aureus after 24 hr by gelatin hydrolysis test; format: functional, organism-based

SMILES: CCc1ccccc1NC(=S)NC(=O)c1cnn(C)c1
- Activity (Acinetobacter baumannii [1]): inactive
- Activity (Staphylococcus aureus [2]): inactive
- MIC (Escherichia coli [3]): > 1000 µg/mL
- MIC (Klebsiella pneumoniae [4]): 1000 µg/mL (≈ 3470 µM)
- MIC (Acinetobacter baumannii [5]): 250 µg/mL (≈ 867 µM)
- MIC (Pseudomonas aeruginosa [6]): 500 µg/mL (≈ 1730 µM)
- MIC (Staphylococcus aureus [7]): 250 µg/mL (≈ 867 µM)
- MIC (Enterococcus faecalis [8]): > 1000 µg/mL
- MIC (Bacillus subtilis [9]): 1000 µg/mL (≈ 3470 µM)
- Activity (Escherichia coli [10]): inactive
- Activity (Klebsiella pneumoniae [11]): inactive
- Activity (Acinetobacter baumannii [12]): inactive
- Activity (Pseudomonas aeruginosa [13]): inactive
- Activity (Staphylococcus aureus [14]): inactive
- Activity (Enterococcus faecalis [15]): inactive
- Activity (Bacillus subtilis [16]): inactive
- Activity (Escherichia coli [17]): inactive
- Activity (Klebsiella pneumoniae [18]): inactive
- Activity (Acinetobacter baumannii [19]): inactive
- Activity (Pseudomonas aeruginosa [20]): inactive
- Activity (Staphylococcus aureus [21]): inactive
- Activity (Bacillus subtilis [22]): inactive
- Activity (Enterococcus faecalis [23]): inactive
- Activity (Escherichia coli [24]): inactive
- Activity (Klebsiella pneumoniae [25]): inactive
- Activity (Acinetobacter baumannii [26]): inactive
- Activity (Pseudomonas aeruginosa [27]): inactive
- Activity (Staphylococcus aureus [28]): inactive
- Activity (Enterococcus faecalis [29]): inactive
- Activity (Escherichia coli [30]): inactive
- Activity (Bacillus subtilis [31]): inactive
- Activity (Klebsiella pneumoniae [32]): inactive
- inhibition (Escherichia coli [33]): inactive
- inhibition (Klebsiella pneumoniae [34]): inactive
- inhibition (Acinetobacter baumannii [35]): inactive
- inhibition (Pseudomonas aeruginosa [36]): inactive
- inhibition (Staphylococcus aureus [37]): inactive
- inhibition (Enterococcus faecalis [38]): inactive
- inhibition (Bacillus subtilis [39]): inactive
- inhibition (Escherichia coli [40]): inactive
- inhibition (Klebsiella pneumoniae [41]): Active
- inhibition (Acinetobacter baumannii [42]): inactive
- inhibition (Pseudomonas aeruginosa [43]): inactive
- inhibition (Staphylococcus aureus [44]): inactive
- inhibition (Enterococcus faecalis [45]): inactive
- inhibition (Bacillus subtilis [46]): inactive
- Activity (Enterococcus faecalis [47]): inactive
- Activity (Bacillus subtilis [48]): inactive
- Activity (Pseudomonas aeruginosa [49]): inactive
- Activity (Pseudomonas aeruginosa [50]): inactive
- Activity (Enterococcus faecalis [51]): inactive
- Activity (Bacillus subtilis [52]): inactive
- Activity (Escherichia coli [53]): inactive
- Activity (Klebsiella pneumoniae [54]): inactive
- Activity (Acinetobacter baumannii [55]): inactive
- Activity (Staphylococcus aureus [56]): inactive
